Measurements from the OPERA property sets (Mansouri et al. 2018).

| SMILES | logP |
| --- | --- |
| C=CC(=O)OCCOCCOCCOC(=O)C=C | 0.96 |
| CC1=C(C(=O)Nc2ccccc2-c2ccccc2)SCCO1 | 2.54 |
| CCOc1ccc(Cc2cnc(N)nc2N)cc1OCC | 1.72 |
| Fc1ccc(F)c(F)c1 | 2.52 |
| O=C1c2ccccc2C(=O)C1c1cccc(C(F)(F)F)c1 | 3.78 |
| Cc1nc2n(c(=O)c1C)CCCC2 | 0.6 |
| CCOC(=O)C(C(=O)OCC)=C1SCCS1 | 2.45 |
| CCN(CC)CCOC(=O)/C=C/c1ccccc1 | 3.61 |
| COc1cccc(NC(=O)CN2CCCCC2)c1 | 2.71 |
| CCCN(CCC)CC(=O)NC1c2ccccc2-c2ccccc21 | 4.61 |
| O=C(CCN1CCC(O)(c2ccc(Cl)cc2)CC1)c1ccc(F)cc1 | 3.24 |
| CNC(=O)OC1OC(=O)C2C3C=CC(C3)C12 (stereo not drawn) | 0.63 |
| CC(C)C(Nc1ccccc1)C(=O)OCc1ccccc1 (stereo not drawn) | 4.41 |
| Nc1ccn([C@H]2C=C[C@@H](CO)O2)c(=O)n1 | -1.55 |
| Cc1cccc(C)c1NC(=O)CCN | 0.62 |
| CN(C)[C@@H]1C(O)=C(C(N)=O)C(=O)[C@@]2(O)C(O)=C3C(=O)c4c(O)ccc(Cl)c4[C@@](C)(O)[C@H]3C[C@@H]12 | -0.62 |
| C=C1C(=O)OC2C1C(OC(=O)C=C(C)C)CC1=CC(CC3(C)OC23)OC1=O (stereo not drawn) | 1.05 |
| OC(Cn1ccnc1)(c1ccc(Cl)cc1)c1ccc(-c2ccncc2)cc1 (stereo not drawn) | 3.27 |
| CCN(CC)CCNC(=O)c1cc(Br)c(N)cc1OC | 2.83 |
| CCCCCCC(C)=NNC(=N)N | 2.08 |
| CCCCCCCCCCCCCCCC(=O)O | 7.17 |
| O=C(O)c1ccc(Cl)cc1Nc1ccccc1 | 4.25 |
| O=C(O)c1cccnc1 | 0.36 |
| C=Cc1ccc(C(=O)O)cc1 | 2.18 |
| Cc1cn([C@H]2CC[C@@H](CO)O2)c(=O)[nH]c1=O | -0.6 |
| Cc1ccc2c(c1)C(c1ccccc1)=NCC(=O)N2 | 2.62 |
| CC(C)Nc1nc(Cl)nc(NC2CC2)n1 | 3.06 |

| SMILES | logP |
| --- | --- |
| CNC(=O)COc1cccc(OCC(O)CNC(C)C)c1 (stereo not drawn) | 0.35 |
| CCOC(=O)CNC(=O)CCCCSc1ncnc2nc[nH]c12 | 0.91 |
| CC(C)OC(=O)[C@@H](N)Cc1ccc(O)c(O)c1 | 0.57 |
| OC(Cn1ccnc1)(c1ccc(F)cc1)c1cccc(-c2ccncc2)c1 (stereo not drawn) | 2.91 |
| CCCCCCC(C)(C)c1cc(O)c2c(c1)OC(C)(C)C1CC=C(C)CC21 (stereo not drawn) | 9.96 |
| Cc1cc(Br)cc(C)c1N=C1NCCN1 | 2.8 |
| Cc1cc(Br)cc(C(=O)NC(C)C)c1O | 4.19 |
| CCCCC(CCC)C(=O)O (stereo not drawn) | 3.01 |
| Cc1cccc(C)c1NC(=O)CCCCN | 1.02 |
| O=C(NN1CC=CCC1)c1ccco1 | 0.81 |
| CCCc1ccc(O)cc1 | 3.2 |
| Clc1ccc(Br)cc1NC1=NCCN1 | 2.05 |
| O=[N+]([O-])O[C@@H]1CO[C@H]2[C@@H]1OC[C@@H]2O | -0.15 |
| C[C@H]1O[C@@H](O[C@H]2CC[C@@]3(C)[C@H](CC[C@@H]4[C@@H]3CC[C@]3(C)[C@@H](C5=CC(=O)OC5)[C@@H](O)C[C@]43O)C2)C[C@H](O)[C@@H]1O | 1.77 |
| CN(C)CCCCN(Cc1ccc(C(C)(C)C)cc1)c1ccccc1 | 5.53 |
| Nc1nc2c(ncn2COC(CO)CO)c(=O)[nH]1 | -1.66 |
| NNC(=O)c1ccnc(I)c1 | 0.52 |
| CCOC(=O)CNC(=O)CNC(=O)CNC(=O)CCCCSc1ncnc2nc[nH]c12 | 0.21 |
| CNC(=O)COc1ccc(OCC(O)CNC(C)C)cc1 (stereo not drawn) | 0.56 |
| COC(=O)C1=C(C)NC(C)=C(C(=O)OCCN(C)Cc2ccccc2)C1c1cccc([N+](=O)[O-])c1 (stereo not drawn) | 3.82 |
| CCCCCCCCCCCC(=O)O | 4.6 |
| CCc1cc(CC)cc(C2C(=O)c3ccccc3C2=O)c1 | 4.94 |
| CCS[C@@H]1O[C@H](CO)[C@H](O)[C@H](O)[C@H]1O | -1.51 |
| O=Nc1ccc(O)c(=O)cc1 | 0.83 |
| Cc1cccc(C)c1NC(=O)C(C)N(C)C (stereo not drawn) | 1.53 |
| Cn1nnnc1SCC1=C(C(=O)OCOC(=O)C(C)(C)C)N2C(=O)C(NC(=O)C(O)c3ccccc3)C2SC1 (stereo not drawn) | 0.85 |
